Experiments:
HRECs [1] = test: Stability of tight junctions (TJs) at cell-cell contacts in VEGF-treated HRECs, anti-occludin immunostaining; type: cell-based, human; conditions: 10 μg/mL 1 hour, then 20 ng/mL VEGF 1 hour
Experimental: In FIG. 8a, confluent HRECs were pretreated with Sac0601 (panel A in FIG. 8a) or Sac0504 (panel B in FIG. 8a) for 60 minutes before treating with 20 ng/ml. VEGF (1 hr). The cells were then stained with occludin antibody.
(§1) Confluent HRECs were treated with 10 μg/mL Sac0601 (FIG. 8a, panel A) or Sac0504 (FIG. 8a, panel B) for 1 hour and then with 20 ng/mL. VEGF for 1 hour. Subsequently, the cells were fixed at room temperature for 20 minutes with 4% paraformaldehyde and permeabilized with 0:1% Triton X-100/PBS. Then, the cells were incubated in PBS blocking solution containing 5% normal goat serum and 0.05% Tween-20. The cells were then reacted with anti-occludin antibody (Zymed Laboratories Inc.). The result was visualized with fluorescein-conjugated anti-mouse antibody (Vector Lab.). Also, western blotting was conducted for the cell lysate. The cell lysate was fractionated with SDS-PAGE and then transferred to polyvinyl difluoride membrane. The blocked membrane was reacted with anti-occludin antibody (Zymed Laboratories Inc.) and the immune response band was visualized with the chemiluminescence reagent obtained from Amersham Biosciences, Inc.

HRECs [2] = test: DNA fragmentation in serum-depleted HRECs; type: cell-based, human; conditions: serum-free medium, 0.1-10 μg/mL, 48 hours
Experimental: HRECs (3×10^4 cells/well) were seeded on a 24-well plate in M199 medium containing 20% fetal bovine serum. The next day, the cells were transferred to a medium containing 0.1-10 μg/mL Sac0601 (FIG. 6a) or 0.1-10 μg/mL Sac0504 (FIG. 6b). DNA fragmentation was analyzed by TUNEL assay 48 hours later.
In addition, chromosomal fragmentation and nicking characteristic of apoptosis were monitored, HRECs (3×10^4 cells/well) were seeded on a 24-well plate in M199 medium (1 mL) containing 20% fetal bovine serum, Next day, the cells were transferred to serum-free M199 medium containing 0.1-10 μg/mL Sac0601 (FIG. 6a) or 0.1-10 μg/mL Sac0504 (FIG. 6b). 48 hours later, the cells were washed twice with PBS, fixed with 2% paraformaldehyde, and washed twice with PBS again, After adding 4′,6-diamidino-2-phenylindole-2HCl (DAPI; Calbiochem, USA) solution and reacting for 30 minutes in the dark, the cells were washed twice with PBS and degree of DNA fragmentation was observed under an optical microscope after covering with a cover glass.

HRECs [3] = test: Restoration of TJ instability and cytoskeleton change induced by VEGF in HRECs; type: cell-based, human; conditions: 20 ng/mL VEGF 1 hour, then 10 μg/mL 1 hour
Experimental: In FIGS. 9a-9b, confluent HRECs were stimulated with 20 ng/mL VEGF (1 hr) before treating with Sac0504 and Sac0601. The cells were then stained with anti-occludin antibody (FIG. 9a) and rhodamine phalloidin (FIG. 9b).
Confluent HRECs were treated with 20 ng/mL. VEGF for 1 hour and then with 10 μg/mL Sac0601 or Sac0504 for 1 hour. Subsequently, the cells were stained with anti-occludin antibody (FIG. 9a) or […] (FIG. 9b) as described above.

C57/BL6 mouse = test: Vascular leakage induced by VEGF in mouse retina, FITC-dextran; type: in vivo; conditions: VEGF 50 ng and compound 10 μg into the vitreous body, 24 hours
Experimental: VEGF (50 ng) and Sac0601 (10 μg) were injected into the vitreous body of C57/BL6 mouse. An excipient (DMSO) was injected into the other eye. 24 hours after the injection, 100 μL FITC-dextran (30 mg/mL in PBS, Sigma) was injected into the left ventricle. After waiting for about 2 minutes for circulation of the tracer, the eyes were taken out and fixed immediately in 4% PFA, Then, the retina was taken out and observed under an optical microscope.

occludin = test: Occludin western blotting of HREC lysate; type: cell-based, human; conditions: HRECs, pretreatment 60 minutes, then 20 ng/mL VEGF 1 hour
Experimental: In FIG. 8b, confluent HRECs were pretreated with Sac0601 (10 μg/mL) for 60 minutes before treating with 20 ng/mL VEGF (1 hr). Then, cell lysate was subjected to western blotting using anti-occludin antibody.
as §1

[4] = test system: human umbilical vein endothelial cells (HUVECs); test: Serum depletion-induced apoptosis of HUVECs, MTT assay and cell morphology; type: cell-based; conditions: serum-free medium, 5 or 10 μg/mL, 24 and 48 hours
Experimental: FIGS. 1a-1b and FIGS. 2a-2d show the result of screening Rk1 analogs that protect human umbilical vein endothelial cells (HUVECs) from serum depletion-induced apoptosis. HUVECs (3×10^5 cells/well) were seeded on a 24-well plate in M199 medium containing 20% fetal bovine serum. The next day, the cells were transferred to a medium containing 5 μg/mL (FIG. 1a) or 10 μg/mL (FIG. 1b) of the synthesized compound. Cell viability was determined by MIT assay 24 hours and 48 hours later. FIGS. 2a-2d show the result of observing cell morphologies. […]
Based on the previous researches performed by the inventors, the synthesized derivatives of Rk1 having steroid backbone and having the ability of inhibiting apoptosis of vascular endothelial cells and inhibiting permeability were screened. First, the ability of inhibiting apoptosis of vascular endothelial cells was measured. […] The next day, the cells were transferred to serum-free 11199 medium containing 5 μg/mL (FIG. 1a) or 10 μg/mL (FIG. 1b) of the compound synthesized in Synthesis Example 1-4, Cell viability was determined by MTT assay (Mosmann T, Journal of ImmunalogiCal Methods 65(1-2): 55-63 (1983); Cory A H, et al., Cancer Communications 3(7): 207-12 (1991)) 24 hours and 48 hours later.

Compound | redistribution of TJs into the cytoplasm or destabilizing at the cell membrane induced by VEGF (HRECs [1]) | stability of TJs between cells (HRECs [1]) | DNA fragmentation (HRECs [2]) | change in actin structure and TJ stability at the cell-cell contacts induced by VEGF (HRECs [3]) | vascular leakage induced by VEGF (C57/BL6 mouse) | occludin (western blotting) (occludin) | ability of inhibiting apoptosis (cell viability by MTT assay) [4]
CC(=O)OCC1OC(OC2CCC3(C)C(=CCC4C3CCC3(C)C(C(C)CCCC(C)C)CCC43)C2)C=CC1OC(C)=O (stereo not drawn) [Sac0601] | could be inhibited | more effective in enhancing the stability of TJs than Sac0504 | inhibit DNA fragmentation | can be restored | greatly decreases | results in decrease of occludin | comparable to that of Rk1
CC(C)CCC[C@@H](C)[C@H]1CC[C@H]2[C@@H]3CC=C4C[C@@H](OC5CCCCO5)CC[C@]4(C)[C@H]3CC[C@]12C (stereo partly drawn) [Sac0504] | could be inhibited | enhanced | inhibit DNA fragmentation | can be restored | – | – | comparable to that of Rk1

From patent US8889840B2, “Vascular leakage inhibitor” (Industry-Academic Cooperation Foundation, Yonsei University, priority 2009, dated 2014)
